Assay: molar heat capacity at constant pressure; mn = molality of the nth substance listed, in mol/kg
Conditions: 350 kPa, Liquid

O=[N+]([O-])[O-].O=[N+]([O-])[O-].[Sr+2] [strontium nitrate] + O
molar heat capacity at constant pressure [J/K/mol]
Conditions | m1 = 0.0499 | m1 = 0.1006 | m1 = 0.2005 | m1 = 0.4995 | m1 = 0.7992 | m1 = 0.9995 | m1 = 1.502 | m1 = 2.003 | m1 = 3.001
278.15 K | 75.4 | 75.15 | 74.75 | 74.1 | 73.96 | 74.06 | 74.66 | 75.65 | 77.88
283.15 K | 75.27 | 75.05 | 74.7 | 74.14 | 74.04 | 74.14 | 74.76 | 75.76 | 77.98
288.15 K | 75.18 | 74.99 | 74.68 | 74.19 | 74.11 | 74.22 | 74.84 | 75.84 | 78.06
293.15 K | 75.13 | 74.95 | 74.67 | 74.24 | 74.18 | 74.3 | 74.92 | 75.92 | 78.12
298.15 K | 75.1 | 74.94 | 74.68 | 74.29 | 74.25 | 74.37 | 74.99 | 75.99 | 78.17
303.15 K | 75.08 | 74.93 | 74.7 | 74.34 | 74.31 | 74.43 | 75.05 | 76.04 | 78.21
308.15 K | 75.08 | 74.94 | 74.72 | 74.39 | 74.37 | 74.49 | 75.1 | 76.09 | 78.24
313.15 K | 75.09 | 74.95 | 74.75 | 74.44 | 74.42 | 74.55 | 75.15 | 76.13 | 78.27
318.15 K | 75.11 | 74.98 | 74.79 | 74.49 | 74.48 | 74.6 | 75.2 | 76.17 | 78.29
323.15 K | 75.14 | 75.01 | 74.83 | 74.55 | 74.54 | 74.66 | 75.25 | 76.2 | 78.31
328.15 K | 75.17 | 75.05 | 74.87 | 74.6 | 74.59 | 74.71 | 75.29 | 76.24 | 78.32
333.15 K | 75.21 | 75.1 | 74.92 | 74.66 | 74.65 | 74.76 | 75.33 | 76.27 | 78.34
338.15 K | 75.26 | 75.15 | 74.98 | 74.72 | 74.71 | 74.82 | 75.37 | 76.3 | 78.36
343.15 K | 75.32 | 75.21 | 75.04 | 74.78 | 74.77 | 74.87 | 75.41 | 76.33 | 78.38
348.15 K | 75.39 | 75.27 | 75.11 | 74.85 | 74.83 | 74.93 | 75.46 | 76.36 | 78.41
353.15 K | 75.46 | 75.34 | 75.18 | 74.91 | 74.89 | 74.98 | 75.5 | 76.4 | 78.43
358.15 K | 75.54 | 75.42 | 75.25 | 74.98 | 74.95 | 75.04 | 75.55 | 76.44 | 78.47
363.15 K | 75.62 | 75.5 | 75.33 | 75.06 | 75.02 | 75.11 | 75.6 | 76.48 | 78.52
368.15 K | 75.71 | 75.59 | 75.42 | 75.14 | 75.09 | 75.17 | 75.65 | 76.53 | 78.57
373.15 K | 75.81 | 75.69 | 75.51 | 75.22 | 75.17 | 75.24 | 75.71 | 76.59 | 78.64
378.15 K | 75.92 | 75.8 | 75.61 | 75.31 | 75.25 | 75.32 | 75.78 | 76.65 | 78.72
383.15 K | 76.04 | 75.91 | 75.72 | 75.4 | 75.33 | 75.4 | 75.85 | 76.72 | 78.82
388.15 K | 76.16 | 76.03 | 75.83 | 75.5 | 75.42 | 75.49 | 75.93 | 76.8 | 78.94
393.15 K | 76.3 | 76.16 | 75.95 | 75.61 | 75.52 | 75.58 | 76.02 | 76.89 | 79.07
